Experimental data published in patent US9316632B2, “Methods of screening chemotherapeutic agents and treating cancer” (Marshall University Research Corporation, priority 2009, dated 2016).

Key:
[1] = system: cancer stem-like cells (reoccurrence of anaplastic ependymoma); assay: MTT assay, cancer stem-like cells from the reoccurrence of the Example 1 ependymoma; type: cell-based, human; conditions: reoccurrence biopsy, FIG. 6
Procedure: (§1) Three-Dimensional Bioreactor Cell Culture. A hydrodynamic focusing bioreactor (HFB) (Celdyne, Houston Tex.) was used as previously described to proliferate cancer stem-like cells. Culture media, oxygenation, speed, temperature and CO2 were kept consistently constant for ten days. In certain instances, cancer stem-like cells were cultured in the HFB and exposed for 2 to 6 hours with ozone (O3) levels at levels of 0.08 to 0.40 PPM to cause a fluctuation in the cellular redox environment (redox cycle). Ozone was generated with two OREC Model OZONEV1-O ozonizers (Ozone Research and Equipment Corp., Phoenix, Ariz.), with compressed air used as a source of oxygen, and the concentration of ozone within the chambers was monitored throughout the exposure with three Dasibi 1003 AH ambient-air ozone monitors (Dasibi Environmental Corp., Glendale, Calif.). Cells were then counted and 1×10^6 cells were placed in the rotating vessel set at 25 rpm with airflow set at 20% for […]. Cells were then removed and counted again using trypan blue exclusion to determine cellular viability and cell number and plated in 96 wells for chemosensitivity testing. The cells were also reacted with florescent antibodies for phenotypic characterization.
(§2) Chemosensitivity assay. Sensitivity and resistance to chemotherapy was assessed using an MTT assay on 1×10^3 cells plated in 5 replicas into 96-well plates. […]

[2] = system: bulk cancer cells (reoccurrence of anaplastic ependymoma); assay: MTT assay, bulk cancer cells from the reoccurrence of the Example 1 ependymoma; type: cell-based, human; conditions: reoccurrence biopsy, FIG. 6
Procedure: (§3) Chemosensitivity assay. Sensitivity and resistance to chemotherapy was assessed using an MTT assay on 1×10^3 cells plated in 5 replicas into 96-well plates. Briefly, equal number of bulk of tumor cells grown in monolayer and cancer stem-like cells CD133(+) three-dimensionally grown in the bioreactor, were plated separately in 96-well dishes and incubated at 37° C. for 24-hours. Then the cells were challenged for a 1-hour pulse with a panel of anticancer drugs as indicated by the oncologist. Each anticancer drug was tested in a range of doses including the clinically relevant dose. An MTT assay was performed 24-hours following chemotherapy treatment to assess cell viability as previously described. A dose response chart was developed in which samples were scored as responsive (60-100% cell kill), moderately responsive (40-60% cell kill), low to moderate responsive (20-40% cell kill), low responsive (10-20% cell kill), and non-responsive (0-10% cell kill).

[3] = system: cancer stem-like cells (anaplastic ependymoma, WHO grade III); assay: MTT assay, cancer stem-like cells, Example 2 anaplastic ependymoma; type: cell-based, human; conditions: FIG. 9
Procedure: as §1, §3
(§4) Similar to the experiments described herein above, the cancer cell sample was initially cultured as a suspension and the cancer cells were immunophenotyped by flow cytometer using anti-CD133 (Milteny Biotech, Auburn, Calif.), -CD34 (Milteny Biotech, Auburn, Calif.), -CD38 (Milteny Biotech, Auburn, Calif.), -CD44 (BD Bioscience, Sparks, Md.), -CD24 (Milteny Biotech, Auburn, Calif.), -CXCR4 (Milteny Biotech, Auburn, Calif.), -OCT3/4 (BD Bioscience, Sparks, Md.), and -Nanog (BD Bioscience, Sparks, Md.).
(§5) Then, to then expand the immature cancer stem-like cell population of CD133+ cells present within the ependymoma primary culture, the ependymoma cells were grown in a rotating vessel, as describe herein above and as previously described. To assess the efficacy of various chemotherapeutic agents on the cancer cell sample, an MTT assay was the performed as also described herein.

[4] = system: bulk cancer cells (anaplastic ependymoma, WHO grade III); assay: MTT assay, bulk cancer cells, Example 2 anaplastic ependymoma; type: cell-based, human; conditions: FIG. 9
Procedure: as §3, §4, §5

[5] = system: CD133(+) cancer stem-like cells grown in the HFB (ependymoma); assay: MTT chemosensitivity assay, cancer stem-like cells of the Example 1 ependymoma sample; type: cell-based, human; conditions: 1-hour pulse, MTT 24-hours after treatment, FIG. 5
Procedure: as §1, §3
To then expand the immature cancer stem-like cell population of CD 133+ cells present within the ependymoma primary culture, the ependymoma cells were grown in a rotating vessel, as previously described. Briefly, 1×10^6 of the ependymoma cells from a monolayer culture were grown for ten days using a Hydrodynamic Focusing Bioreactor (HFB) (Celdyne, Houston, Tex.) at 25 rpm with airflow set at 20%, and culture media, oxygenation, speed, temperature and CO2 were kept consistently constant for ten day period. Following the ten day period, cells were then removed and counted again from the HFB, and trypan blue exclusion was used to determine cellular viability and cell number. The cells were also reacted with florescent antibodies for phenotypic characterization.
(§6) To assess the efficacy of various chemotherapeutic agents on the cancer cell sample collected in Example 2, an MTT assay was performed on […] plated in 5 replicas into 96-well plates. Briefly, equal number of the bulk cancer cells grown in a monolayer and the CD133(+) cancer stem-like cells grown in the HFB were plated separately in 96-well dishes and incubated at 37° C. for 24-hours. Then, each of the cell cultures were challenged for a 1-hour pulse with various chemotherapeutic agents, including cisplatin, oxaliplatin, arabinoside-C, VP-16, busulfan, methotrexate, CPT-11, and doxorubicin. Each chemotherapeutic agent was tested in a range of doses including their respective clinically relevant doses.

[6] = system: ependymoma cells grown in a monolayer (bulk cancer cells); assay: MTT chemosensitivity assay, bulk cancer cells of the Example 1 ependymoma sample; type: cell-based, human; conditions: 1-hour pulse, MTT 24-hours after treatment, FIG. 5
Procedure: Single Cell Suspension and Primary Cell Culture. Single-cell suspensions from the ependymoma biopsy was prepared using the gentleMACS™ Dissociator (Miltenyi, Auburn, Calif.), and C Tubes using a standardized, semi-automated protocol based on a combination of mechanical tissue disruption and incubation with a 50% solution 0.025% trypsin and Accutase (Innovative Cell Technologies, San Diego, Calif.). Cells were serially plated in 24-well, 12-well, 6-well, 10-cm treated dishes and cultured to subconfluence in RPMI-1640 medium supplemented with 5% irradiated, heat inactivated, defined fetal bovine serum (Thermofisher/Hyclone), and 50 U of penicillin and 5 μg of streptomycin/mL of medium (Thermofisher/Mediatech).
as §3, §6
The MTT assay was then performed 24-hours following the chemotherapy treatment to assess cell viability. A dose response chart was developed in which samples were scored as responsive (60-100% cell kill), moderately responsive (40-60% cell kill), low to moderate responsive (20-40% cell kill), low responsive (10-20% cell kill), and non-responsive (0-10% cell kill). This assessment was independently performed for both the bulk cancer cells and the cancer stem-like cells of the ependymoma cancer cell sample.

medulloblastoma cells = assay: MTT assay, Example 5 medulloblastoma cells; type: cell-based, human; conditions: FIG. 15
Procedure: as §3

[7] = system: cancer stem-like cells (IDH-1 negative glioblastoma, WHO grade IV); assay: MTT assay, cancer stem-like cells, Example 4 IDH-1 negative glioblastoma; type: cell-based, human; conditions: FIG. 13
Procedure: as §1, §2

[8] = system: intradural, extramedullary anaplastic diffuse spinal ependymoma, WHO grade III; assay: Clinical course of the Example 1 subject under treatment; type: in vivo, human; conditions: recurring spinal ependymoma
[9] = system: bulk cancer cells (IDH-1 negative glioblastoma); assay: MTT assay, bulk cancer cells, Example 3 IDH-1 negative glioblastoma; type: cell-based, human; conditions: FIG. 11
Procedure: as §3

[10] = system: cancer stem-like cells (IDH-1 negative glioblastoma); assay: MTT assay, cancer stem-like cells, Example 3 IDH-1 negative glioblastoma; type: cell-based, human; conditions: at the concentration tested, FIG. 11
Procedure: as §1, §2

[11] = system: bulk cancer cells (IDH-1 negative glioblastoma, WHO grade IV); assay: MTT assay, bulk cancer cells, Example 4 IDH-1 negative glioblastoma; type: cell-based, human; conditions: FIG. 13
Procedure: as §3

Compound | sensitivity to chemotherapy (MTT cell viability) [3] | sensitivity to chemotherapy (MTT cell viability) [4] | sensitivity to chemotherapy (MTT cell viability) [5] | sensitivity to chemotherapy (MTT cell viability) [6] | further results
S=C=NCc1ccccc1 [BITC, benzyl isothiocyanate] | not sensitive | not sensitive |  |  | sensitivity to chemotherapy (MTT cell viability) [1]: sensitive; sensitivity to chemotherapy (MTT cell viability) [2]: sensitive
CCc1c2c(nc3ccc(OC(=O)N4CCC(N5CCCCC5)CC4)cc13)-c1cc3c(c(=O)n1C2)COC(=O)[C@]3(O)CC [CPT-11, irinotecan] | not sensitive | not sensitive | moderate chemosensitivity | sensitive | 
COc1cc([C@@H]2c3cc4c(cc3[C@@H](O[C@@H]3O[C@@H]5CO[C@@H](C)O[C@H]5[C@H](O)[C@H]3O)[C@H]3COC(=O)[C@H]23)OCO4)cc(OC)c1O [VP-16, etoposide] |  |  | completely not responsive | completely not responsive | effectiveness at treating the medulloblastoma cells (MTT) (medulloblastoma cells): effective
Nc1ccn([C@@H]2O[C@H](CO)[C@@H](O)[C@@H]2O)c(=O)n1 [arabinoside-C] |  |  | completely not responsive | completely not responsive | 
CS(=O)(=O)OCCCCOS(C)(=O)=O [busulfan] |  |  | minimally to moderately responsive | minimally to moderately responsive | 
N.N.[Cl][Pt][Cl] [cisplatin] |  |  | moderate chemosensitivity | sensitive | cell kill [3]: 30%; cell kill [4]: 30%
COc1cccc2c1C(=O)c1c(O)c3c(c(O)c1C2=O)C[C@@](O)(C(=O)CO)C[C@@H]3O[C@H]1C[C@H](N)[C@H](O)[C@H](C)O1 [doxorubicin] |  |  | highly sensitive | sensitive | 
O=NN(CCCl)C(=O)NC1CCCCC1 [lomustine] | not sensitive | not sensitive |  |  | 
CN(Cc1cnc2nc(N)nc(N)c2n1)c1ccc(C(=O)N[C@@H](CCC(=O)O)C(=O)O)cc1 [methotrexate] |  |  | minimally to moderately responsive | minimally to moderately responsive | 
O=C1[O][Pt]2([NH][C@@H]3CCCC[C@H]3[NH]2)[O]C1=O [oxaliplatin] | not sensitive | not sensitive | completely not responsive | completely not responsive | 
CNNCc1ccc(C(=O)NC(C)C)cc1 [procarbazine] |  |  |  |  | cell kill [3]: 30%; cell kill [4]: 30%
Cn1nnc2c(C(N)=O)ncn2c1=O [temozolomide] |  |  |  |  | cell kill [7]: 60%; clinical response of the tumor to treatment [8]: no response; cell kill [9]: 50%; response score (MTT cell viability) [10]: non-responsive (non-responsive (0-10% cell kill)); cell kill [11]: 60%
bevacizumab | not sensitive | not sensitive |  |  | 
